Patent publication US9302999B2, “Substituted triazoles as herbicides” (E. I. DU PONT DE NEMOURS AND COMPANY, priority 2012, dated 2016)

How the values were obtained:
[1] = system: pigweed, palmer (palmer pigweed, Amaranthus palmeri); experiment: Test F pre-/postemergence: pigweed, palmer; assay type: in vivo
Procedure, shortened: (§1)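 0–100 visual control scores, taken 14–21 d after application in the greenhouse. Preemergence treatment was made to silt loam soil at sowing. Postemergence sprays hit 1- to 4-leaf plants (2–18 cm) in peat/vermiculite mix. Surfactant-containing non-phytotoxic solvent served as the vehicle.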

[2] = system: foxtail, green (green foxtail Setaria viridis); experiment: Test F pre-/postemergence: foxtail, green; assay type: in vivo; settings: Preemergence
Procedure, shortened: as §1

kochia (Kochia scoparia) = experiment: Test F pre-/postemergence: kochia; assay type: in vivo; settings: Preemergence
Procedure, shortened: as §1

Oilseed Rape = experiment: Test C postemergence: oilseed rape; assay type: in vivo, Brassica napus
Excerpt: (§2) Seeds of plant species selected from blackgrass (Alopecurus myosuroides), bromegrass, downy (downy bromegrass, Bromus tectorum), foxtail, green (green foxtail, Setaria viridis), ryegrass, Italian (Italian ryegrass, Lolium multiflorum), winter wheat (Triticum aestivum), wild oat (Avena fatua), galium (catchweed bedstraw, Galium aparine), bermudagrass (Cynodon dactylon), surinam grass (Brachiaria decumbens), cocklebur (common cocklebur, Xanthium strumarium), corn (Zea mays), large crabgrass (Digitaria sanguinalis), woolly cupgrass (Eriochloa villosa), foxtail, giant (giant foxtail, Setaria faberii), goosegrass (Eleusine indica), johnsongrass (Sorghum halepense), kochia (Kochia scoparia), lambsquarters (Chenopodium album), morningglory (Ipomoea coccinea), nightshade (eastern black nightshade, Solanum ptycanthum), nutsedge, yellow (yellow nutsedge, Cyperus esculentus), pigweed (Amaranthus retroflexus), ragweed (common ragweed, Ambrosia elation), soybean (Glycine max), common (oilseed) sunflower (Helianthus annuus), Russian thistle (Salsola kali) and velvetleaf (Abutilon theophrasti) were planted into a blend of loam soil and sand and treated preemergence with test chemicals formulated in a non-phytotoxic solvent mixture which included a surfactant.
(§3) At the same time, plants selected from these crop and weed species and also barley (winter barley, Hordeum vulgare), canarygrass (Phalaris minor), chickweed (common chickweed, Stellaria media) windgrass (Apera spica-venti) and deadnettle (henbit deadnettle, Lamium amplexicaule) were planted in pots containing Redi-Earth® planting medium (Scotts Company, 14111 Scottslawn Road, Marysville, Ohio 43041) comprising spaghnum peat moss, vermiculite, wetting agent and starter nutrients and treated with postemergence applications of test chemicals formulated in the same manner. Plants ranged in height from 2 to 18 cm (1- to 4-leaf stage) for postemergence treatments.
(§4) Treated plants and controls were maintained in a greenhouse for 13 to 15 days, after which time all species were compared to controls and visually evaluated. Plant response ratings, summarized in Table C, are based on a scale of 0 to 100 where 0 is no effect and 100 is complete control. A dash (-) response means no test result.

Waterhemp = experiment: Test C pre-/postemergence: waterhemp; assay type: in vivo
Excerpt: as §2, §3, §4

[3] = system: morningglory (Ipomoea coccinea); experiment: Test F pre-/postemergence: morningglory; assay type: in vivo; settings: Preemergence
Procedure, shortened: as §1

[4] = Preemergence, 16 g ai/ha, scale 0 to 100, 0 no effect, 100 complete control
[5] = Preemergence, 31 g ai/ha, scale 0 to 100, 0 no effect, 100 complete control
[6] = Preemergence, 125 g ai/ha, scale 0 to 100
[7] = Preemergence, 250 g ai/ha, scale 0 to 100
[8] = 16 g ai/ha, scale 0 to 100, 0 no effect, 100 complete control
[9] = 31 g ai/ha, scale 0 to 100, 0 no effect, 100 complete control
[10] = 125 g ai/ha, scale 0 to 100, 0 no effect, 100 complete control
[11] = Preemergence, 250 g ai/ha, scale 0 to 100, 0 no effect, 100 complete control
[12] = Postemergence, 250 g ai/ha, scale 0 to 100
[13] = Postemergence, 31 g ai/ha, scale 0 to 100
[14] = Postemergence, 125 g ai/ha, scale 0 to 100
[15] = 250 g ai/ha, scale 0 to 100 (0 no effect, 100 complete control)
[16] = Postemergence, 31 g ai/ha, scale 0 to 100 (0 no effect, 100 complete control)

Structure (SMILES)	Plant response rating, Pigweed, Palmer [1, 4]	Plant response rating, Pigweed, Palmer [1, 5]	Plant response rating, Pigweed, Palmer [1, 6]	Plant response rating, Pigweed, Palmer [1, 7]	Plant response rating, Foxtail, Green [2, 8]	Plant response rating, Foxtail, Green [2, 9]	Plant response rating, Foxtail, Green ([2]; 62 g ai/ha, scale 0 to 100)	Plant response rating, Foxtail, Green ([2]; 125 g ai/ha, scale 0 to 100)	Plant response rating, Foxtail, Green ([2]; 250 g ai/ha, scale 0 to 100)	Plant response rating, Kochia (kochia (Kochia scoparia); [8])	Plant response rating, Kochia (kochia (Kochia scoparia); [9])	Plant response rating, Kochia (kochia (Kochia scoparia); 62 g ai/ha, scale 0 to 100)	Plant response rating, Kochia (kochia (Kochia scoparia); 125 g ai/ha, scale 0 to 100)	Plant response rating, Kochia (kochia (Kochia scoparia); 250 g ai/ha, scale 0 to 100)	Plant response rating, Oilseed Rape (Oilseed Rape; [10])	Plant response rating, Morningglory [3, 9]	Plant response rating, Morningglory ([3]; 125 g ai/ha, scale 0 to 100)	Plant response rating, Morningglory ([3]; 250 g ai/ha, scale 0 to 100)	Plant response rating, Oilseed Rape (Oilseed Rape; [15])	Plant response rating, Waterhemp (Waterhemp; [16])	also measured
CCc1nn(-c2ccc(F)cc2)nc1Cc1ccnc(C(F)(F)F)c1 [Compound 154]	100	100	100	100	40	75	100	100	100	5	25	85	95	98	95	–	–	–	–	–	Plant response rating, Waterhemp (Waterhemp; [11]): 100
CCc1nn(-c2ccc(C(F)(F)F)cc2)nc1Cc1ccnc(C(F)(F)F)c1 [Compound 155]	–	–	100	100	–	–	100	100	100	–	–	70	98	100	95	–	–	–	–	–	Plant response rating, Waterhemp (Waterhemp; [11]): 100
CCc1nn(-c2ccc(C(F)(F)F)cc2)nc1Oc1ccnc(C(F)(F)F)c1 [Compound 169]	35	100	100	100	98	100	100	100	100	0	95	95	98	98	40	0	40	40	60	75	Plant response rating, Pigweed, Palmer [1, 12]: 100; Plant response rating, Pigweed, Palmer ([1]; Postemergence, 16 g ai/ha, scale 0 to 100): 50; Plant response rating, Pigweed, Palmer [1, 13]: 50; Plant response rating, Pigweed, Palmer ([1]; Postemergence, 62 g ai/ha, scale 0 to 100): 90; Plant response rating, Pigweed, Palmer [1, 14]: 100; Plant response rating, Morningglory [3, 8]: 0
CCc1nn(-c2ccc(F)c(F)c2)nc1Oc1ccnc(C(F)(F)F)c1 [Compound 171]	0	0	100	100	20	50	95	100	100	0	0	5	15	98	30	0	35	65	30	70	Plant response rating, Morningglory [3, 8]: 0
CCCc1nn(-c2ccc(F)c(F)c2)nc1Oc1ccnc(C(F)(F)F)c1 [Compound 172]	–	100	100	100	–	75	–	100	100	–	20	–	100	100	90	0	5	5	95	90	Plant response rating, Pigweed, Palmer [1, 12]: 100; Plant response rating, Pigweed, Palmer [1, 13]: 100; Plant response rating, Pigweed, Palmer [1, 14]: 100
